Results on 10 molecules are retold here after US20260138961A1, “MODULATORS OF MITOCHONDRIAL DNA REPLICATION” (Pretzel Therapeutics, Inc., priority 2022, published 2026).

SMILES strings stand for the structures.

In the experiment the target is T1, POLγA:Y955C (Homo sapiens, UniProt P54098, Y955C).
T1 sequence (P54098 1-1239 Y955C): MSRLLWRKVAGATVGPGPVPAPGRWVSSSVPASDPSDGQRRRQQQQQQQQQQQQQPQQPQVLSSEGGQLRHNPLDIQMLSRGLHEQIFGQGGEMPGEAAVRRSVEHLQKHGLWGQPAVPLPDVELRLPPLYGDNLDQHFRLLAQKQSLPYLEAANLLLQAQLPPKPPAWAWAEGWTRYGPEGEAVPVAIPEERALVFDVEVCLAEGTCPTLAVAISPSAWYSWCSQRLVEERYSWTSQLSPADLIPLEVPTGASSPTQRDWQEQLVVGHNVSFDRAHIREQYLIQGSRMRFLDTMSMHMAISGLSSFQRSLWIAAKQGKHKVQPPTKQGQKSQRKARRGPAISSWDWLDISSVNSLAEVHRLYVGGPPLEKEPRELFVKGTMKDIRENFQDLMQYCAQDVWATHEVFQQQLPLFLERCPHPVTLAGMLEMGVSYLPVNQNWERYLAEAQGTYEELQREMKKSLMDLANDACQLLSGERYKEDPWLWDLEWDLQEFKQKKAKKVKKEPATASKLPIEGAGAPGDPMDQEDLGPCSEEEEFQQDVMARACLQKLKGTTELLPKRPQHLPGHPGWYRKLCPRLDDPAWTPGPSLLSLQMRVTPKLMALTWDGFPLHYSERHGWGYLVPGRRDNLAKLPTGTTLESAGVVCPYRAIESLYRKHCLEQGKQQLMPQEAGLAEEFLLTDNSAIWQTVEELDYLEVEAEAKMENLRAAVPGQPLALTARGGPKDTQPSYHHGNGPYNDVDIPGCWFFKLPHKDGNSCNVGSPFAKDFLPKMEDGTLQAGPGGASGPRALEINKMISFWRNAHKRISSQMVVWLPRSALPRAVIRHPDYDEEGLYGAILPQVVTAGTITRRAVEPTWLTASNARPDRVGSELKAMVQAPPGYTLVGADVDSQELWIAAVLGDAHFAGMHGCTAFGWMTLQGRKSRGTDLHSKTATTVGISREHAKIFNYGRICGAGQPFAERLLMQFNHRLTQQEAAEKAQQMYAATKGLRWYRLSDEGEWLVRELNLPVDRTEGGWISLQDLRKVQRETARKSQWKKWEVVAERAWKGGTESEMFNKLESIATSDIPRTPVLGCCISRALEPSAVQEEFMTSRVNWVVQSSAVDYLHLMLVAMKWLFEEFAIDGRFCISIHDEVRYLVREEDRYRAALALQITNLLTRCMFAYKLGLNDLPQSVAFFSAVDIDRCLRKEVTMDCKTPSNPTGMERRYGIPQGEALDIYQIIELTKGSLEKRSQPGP
T1 sequence (Q9UHN1 1-485 partner): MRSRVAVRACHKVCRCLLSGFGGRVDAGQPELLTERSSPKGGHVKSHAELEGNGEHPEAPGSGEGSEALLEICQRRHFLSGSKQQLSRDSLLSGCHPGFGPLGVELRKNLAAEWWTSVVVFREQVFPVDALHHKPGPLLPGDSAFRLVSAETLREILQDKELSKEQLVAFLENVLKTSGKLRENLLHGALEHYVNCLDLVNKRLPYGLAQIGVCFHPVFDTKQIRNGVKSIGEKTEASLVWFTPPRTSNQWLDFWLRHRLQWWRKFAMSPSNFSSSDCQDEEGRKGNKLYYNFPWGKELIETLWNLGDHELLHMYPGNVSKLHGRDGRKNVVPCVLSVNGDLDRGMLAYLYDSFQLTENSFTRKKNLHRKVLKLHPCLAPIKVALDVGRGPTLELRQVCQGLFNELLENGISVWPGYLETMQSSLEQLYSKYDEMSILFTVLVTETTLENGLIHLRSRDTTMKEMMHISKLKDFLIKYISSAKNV
Kind of experiment: DNA polymerization assay, POLγA:Y955C mutant. Format: biochemical. To be noted: stimulation of polymerase activity, primed M13mp18 ssDNA, 37° C. 2 hours. Here is the method:
DNA Polymerization Assay to Monitor Effects on Human Wildtype POLγ and Four Disease-Causing Mutant Variants of Human POLγ.
The ability of small molecules to stimulate the polymerase activity of POLγ was analyzed in a quantitative fluorescence SYBR Green I assay with fluorescence intensity (FI) readout.
In the presence of dNTPs, wild type human POLγ and mutant derivatives thereof were incubated with single-stranded, circular M13mp18 ssDNA hybridized to a short DNA oligonucleotide that functions as a primer for initiation of DNA synthesis. POLγ and mutant derivatives thereof will extend the primer and use the M13mp18 molecule as a template to synthesize long stretches of double-stranded DNA. SYBR Green I, which is a double-stranded DNA-binding dye, was used to quantify formation of double-stranded DNA in the reaction. When bound to double-stranded DNA, SYBR Green I fluorescence increases by up to 100-fold.
The assay was performed in the 384-well plate format. Upon addition of compounds, changes in double-stranded DNA synthesis activity can be monitored by following effects on fluorescent intensity.
The reactions also contained the accessory POLγB subunit, and the human mitochondrial single-stranded DNA binding protein (mtSSB).
The DNA template mixture used in the assay contained 0.5 nM primed M13 mp18 ssDNA, 400 nM mtSSB, 0.1 mM Tris-HCl (pH 8.0), 0.1 mM dNTP, 10 mM MgCl2, 0.1 mg/mL BSA, 1 mM TCEP solution, and 0.02% Triton X-100. The DNA template mixture for the wild type protein contained either 100 μM dNTP, 1 μM dNTP, or 0.1 μM dNTP, designated in Table 2 as 100 μM, 1 μM, and 0.1 μM, respectfully.
Microplates with compounds (0.1 μL in each well) to be tested in the assay were prepared from 10 mM compound stocks in 100% DMSO, and equal amounts of DMSO without any compound were added to positive and negative control wells.
The protein mixture was dispensed (5 μL into each well) into compound plates and incubated at 37° C. for 15 minutes. After incubation, 5 μL of the DNA template mixture was dispensed into each well. The plates were then incubated at 37° C. for 2 hours.
During incubation, a combined stop buffer and detection reagent solution was prepared. The buffer contained 25 mM EDTA (pH 8.0), 0.02% Triton X-100, and SYBR Green I [Invitrogen] diluted 10,000× (for fluorescent readout). EDTA will stop the enzymatic reaction by chelating magnesium ions.
`Cc1cnc(-c2cccc(NS(=O)(=O)c3cc(C)c(Cl)cc3C)c2)s1` [Example 21, 4-chloro-2,5-dimethyl-N-(3-(5-methylthiazol-2-yl)phenyl)benzenesulfonamide] had an AC50 of 1 µM.

`Cc1ccc(C)c(S(=O)(=O)Nc2cccc(-c3nccs3)c2)c1` [Example 60] registered an AC50 of 0.4 µM. This AC50 is about 2.5-fold lower than that of the molecule before.

In the case of `CC[C@@H]1CCCN1C(=O)c1cccc(NS(=O)(=O)c2cc(C)c(Cl)cc2C)c1` [Example 65, (R)-4-chloro-N-(3-(2-ethylpyrrolidine-1-carbonyl)phenyl)-2,5-dimethylbenzenesulfonamide], the AC50 came out at 2 µM.

`Cc1cc(S(=O)(=O)Nc2cccc(-c3cc(C4CC4)[nH]n3)c2)c(C)cc1Cl` [Example 64, 4-chloro-N-(3-(5-cyclopropyl-1H-pyrazol-3-yl)phenyl)-2,5-dimethylbenzenesulfonamide] had an AC50 of more than 100 µM.

As to `Cc1cc(-c2cccc(NS(=O)(=O)c3cc(C)c(Cl)cc3C)c2)n[nH]1` [Example 66, 4-chloro-2,5-dimethyl-N-(3-(5-methyl-1H-pyrazol-3-yl)phenyl)benzenesulfonamide], the AC50 was 2 µM.

`Cc1csc(-c2cccc(NS(=O)(=O)c3cc(C)c(Cl)cc3C)c2)n1` [Example 20, 4-chloro-2,5-dimethyl-N-(3-(4-methylthiazol-2-yl)phenyl)benzenesulfonamide] showed a half-maximal activity concentration (AC50) of 0.3 µM. Against the preceding molecule, the AC50 is about 6.7-fold lower.

For `Cc1cc(S(=O)(=O)Nc2cccc(-c3cc[nH]n3)c2)c(C)cc1Cl` [Example 68, N-(3-(1H-pyrazol-3-yl)phenyl)-4-chloro-2,5-dimethylbenzenesulfonamide], the AC50 was determined as 2 µM.

As to `Cc1cc2cc(NS(=O)(=O)c3cc(C)c(Cl)cc3C)ccc2[nH]1` [Example 184, 4-chloro-2,5-dimethyl-N-(2-methyl-1H-indol-5-yl)benzenesulfonamide], the AC50 was found to be 2 µM.

Regarding `Cc1cc(S(=O)(=O)Nc2ccc3ccn(C(C)C)c3c2)c(C)cc1Cl` [Example 69, 4-chloro-N-(1-isopropyl-1H-indol-6-yl)-2,5-dimethylbenzenesulfonamide], the AC50 was 0.4 µM.

In turn, `Cc1nc2ccc(NS(=O)(=O)c3cc(C)c(Cl)cc3C)cc2o1` [Example 70, 4-chloro-2,5-dimethyl-N-(2-methylbenzo[d]oxazol-6-yl)benzenesulfonamide] yielded an AC50 of 7 µM.
